Data reported in article PMC11648681, “Development of machine learning models for the prediction of the skin sensitization potential of cosmetic compounds” (PeerJ, 2024).
“And” between values parts separate entries of the source, which are not always exact repeats. Identical values can stand only once. Like-named read-outs stand apart in the source and are kept apart here.

How the values were obtained:
[1] = CCK-8 cell viability of THP-1 cells after 48 h compound treatment in HaCaT/THP-1 co-culture; assay type: cell-based, human; settings: human
Experimental: (§1) The co-culture system was set up according to the following described method. […] THP-1 cells were collected, centrifuged, and re-suspended in fresh RPMI-1640 medium supplemented with 10% FBS at 2 × 10^6 cells/mL. Then cells are distributed into HaCaT-seeded 96 wells plate with 80 μL (1.6 × 10^5 cells/well).
(§2) The compounds listed in Table 1 were dissolved in DMSO to create stock solutions with a concentration of 500 mg/mL. Eleven concentrations were subsequently prepared using two-fold serial dilutions. These stock solutions were then further diluted 250-fold in RPMI-1640 + 10% FBS medium. Finally, 80 μL of the prepared solutions were added 1:1 to the treated 96-well plates and incubated for 48 h at 37 °C and 5% CO2.
(§3) After 48 h of treatment, the treated cells were collected 100 μL cells per well. The supernatant medium was added 10 μL of CCK-8 (Life-iLab, Shanghai, China) solution to each well and incubated the plate in the incubator for 2–4 h. THP-1 cell viability was determined using standard calculation methods.
(§4) The cytotoxicity of 15 test compounds listed in Table 1 was assessed using THP-1 cells across a concentration range of 1,000 to 3.9 μg/mL. Cell viability was assessed after 48 h of treatment using the CCK-8 assay.

[2] = tested on: THP-1 cells; assay: as above; assay type: cell-based, human; settings: for Cell viability / final concentration used (highest concentration that maintained at least 80% cell viability): 48 h; for IC50 (cytotoxicity) / final concentration used (highest concentration that maintained at least 80% cell viability): THP-1 cells; for IC50 (cytotoxicity): 48 h treatment, CCK-8, range 1,000 to 3.9 μg/mL; for final concentration used (highest concentration that maintained at least 80% cell viability): CCK-8, single (not double) concentration
Experimental: as §1, §2, §3, §4

[3] = THP-1 cells in co-culture with HaCaT cells, 48 h, THP-1, individual replicate values
[4] = 0.976563 μg/mL, THP-1, individual replicate values
[5] = 1.95312 μg/mL, THP-1, individual replicate values
[6] = 3.90625 μg/mL, THP-1, individual replicate values
[7] = 7.8125 μg/mL, THP-1, individual replicate values
[8] = 15.625 μg/mL, THP-1, individual replicate values
[9] = 62.5 μg/mL, THP-1, individual replicate values
[10] = 125 μg/mL, THP-1, individual replicate values
[11] = 250 μg/mL, THP-1, individual replicate values
[12] = 500 μg/mL, THP-1, individual replicate values
[13] = 1000 μg/mL, THP-1, individual replicate values
[14] = 48 h, THP-1, individual replicate values
[15] = 31.25 μg/mL, THP-1, individual replicate values

SMILES	viability at 48 h, 31.25 μg/mL ([1]; Cell viability)	viability at 48 h, 0.976563 μg/mL [1, 3]	viability at 48 h, 1.95312 μg/mL [1, 3]	viability at 48 h, 3.90625 μg/mL [1, 3]	viability at 48 h, 7.8125 μg/mL [1, 3]	viability at 48 h, 15.625 μg/mL [1, 3]	viability at 48 h, 62.5 μg/mL [1, 3]	viability at 48 h, 125 μg/mL [1, 3]	viability at 48 h, 250 μg/mL [1, 3]	viability at 48 h, 500 μg/mL [1, 3]	Cell viability [2, 4]	Cell viability [2, 5]	Cell viability [2, 6]	Cell viability [2, 7]	Cell viability [2, 8]	Cell viability [2, 9]	Cell viability [2, 10]	Cell viability [2, 11]	Cell viability [2, 12]	Cell viability [2, 13]	other results
Sc1nc2ccccc2s1 [2-mercaptobenzothiazole]	63.3%	80.2%	76.6%	77.2%	65.9%	63.3%	61.4%	34.2%	24.8%	20.8%	93.5695%	85.722%	80.7937%	76.7668%	73.0224%	73.444%	34.9417%	27.3318%	20.0359%	12.1659%	viability at 48 h, 1000 μg/mL [1, 3]: 12.9%; Cell viability ([2]; human, 31.25 μg/mL): 70.7399%
C[S+](C)[O-] [DMSO, Dimethyl sulfoxide]											104.048% and 100.267%	96% and 94.5143%	96.1619% and 89.1238%						86.8476% and 87.3143%	91.9905% and 89.9048%	IC50 (cytotoxicity) [2]: greater than 1,000 μg/mL
O=[N+]([O-])c1ccc(Cl)c([N+](=O)[O-])c1 [DNCB, 2,4-dinitrochlorobenzene]											95.0987%	97.1973%	71.1839%	7.332%	7.211%	9.193%	8.767%	9.112%	10.9865%	11.5516%	viability at 48 h, 0.976563 μg/mL [1, 14]: 102%; viability at 48 h, 1.95312 μg/mL [1, 14]: 88.2%; viability at 48 h, 3.90625 μg/mL [1, 14]: 75.9%; viability at 48 h, 7.8125 μg/mL [1, 14]: 6.82%; viability at 48 h, 15.625 μg/mL [1, 14]: 6.91%; viability at 48 h, 31.25 μg/mL ([1]; 31.25 μg/mL, 48 h, THP-1, individual replicate values, read-out: Cell viability): 7.1%; viability at 48 h, 62.5 μg/mL [1, 14]: 7.52%; viability at 48 h, 125 μg/mL [1, 14]: 8.76%; viability at 48 h, 250 μg/mL [1, 14]: 11%; viability at 48 h, 500 μg/mL [1, 14]: 13.4%; viability at 48 h, 1000 μg/mL [1, 14]: 19.9%; Cell viability [2, 15]: 7.274%
CC(C)O [IPA, Isopropanol]											106.609% and 97.981%	97.8095% and 92.5429%	90.3238% and 89.219%	92.0495% and 89.6476%	92.1791% and 88.8381%	91.3838% and 93%	92.3943% and 110.771%	91.0095% and 92.9524%	91.6191% and 88.9333%	96.9905% and 96.3619%	Cell viability [2, 15]: 92.0943% and 92.7371%; IC50 (cytotoxicity) [2]: greater than 1,000 μg/mL
CCCCCCCCCCCCOS(=O)(=O)[O-].[Na+] [SDS, Sodium dodecyl sulfate]											99.2381% and 110.076%	92.6381% and 90.6381%	73.0476% and 93.5333%	90.7238% and 93.3905%	95.4381% and 98.4286%	37.0381% and 32.0952%	15.5905% and 18.1809%	15.9333% and 15.6381%	15.1524% and 16.781%	14.1809% and 14.2952%	Cell viability [2, 15]: 85.9333% and 91.0762%; final concentration used (highest concentration that maintained at least 80% cell viability) [2]: 31.25 µg/mL
CC(C)(C)c1cc(O)ccc1O [THBQ, Tert-butylhydroquinone]	103%	95.9%	94.8%	97.4%	117%	104%	47.1%	29.9%	26.6%	18.8%	94.8298%	95.9362%	101.759%	103.546%	101.22%	47.234%	34.2837%	20.1277%	18.8014%	15.3191%	viability at 48 h, 1000 μg/mL [1, 3]: 15.2%; final concentration used (highest concentration that maintained at least 80% cell viability) [2]: 31.25 µg/mL; Cell viability ([2]; human, 31.25 μg/mL): 104.716%
N#CCCC(Br)(C#N)CBr (centres unmarked) [bromoml, 1,2-dibromo-2,4-dicyanobutane]	12%	97%	97.1%	100%	53.3%	13.3%	12.2%	12.2%	11.9%	12.9%	102.88%	103.993%	108.767%	57.1729%	14.391%	11.8195%	12.0752%		12.3985%	12.3609%	viability at 48 h, 1000 μg/mL [1, 3]: 12.4%; final concentration used (highest concentration that maintained at least 80% cell viability) [2]: 3.9 µg/mL; Cell viability ([2]; human, 31.25 μg/mL): 11.782%
